Columns and labels:
in vitro [1] = conditions: Syrian hamster
TCRV [2] = test system: TCRV
TCRV [3] = assay: microbe, parasite or virus in culture; conditions: Mammarenavirus tacaribeense, Vero C1008
in vitro [4] = conditions: human
Yellow fever virus (YFV) [5] = test system: Yellow fever virus (YFV)
[6] = test system: Venezuelan equine encephalitis virus (VEEV)
Yellow fever virus (YFV) [7] = assay: microbe, parasite or virus in culture; conditions: Huh-7
SARS-CoV-2 [8] = assay: microbe, parasite or virus in culture; conditions: Severe acute respiratory syndrome coronavirus 2, Vero 76
[9] = test system: Japanese encephalitis virus (JEV)
West Nile virus (WNV) [10] = assay: microbe, parasite or virus in culture; conditions: Vero 76
Influenza B [11] = assay: microbe, parasite or virus in culture; conditions: MDCK
influenza A(H1N1) [12] = assay: microbe, parasite or virus in culture; conditions: H1N1, MDCK
influenza A(H1N1) [13] = test system: influenza A(H1N1)
dengue virus-2 (DV-2) [14] = conditions: DV-2; SI = CC50/EC50
adenovirus-5 (Ad5) [15] = assay: organism not typed; conditions: A549
SARS-CoV [16] = assay: microbe, parasite or virus in culture; conditions: Severe acute respiratory syndrome coronavirus, Vero 76
influenza A(H5N1) [17] = test system: influenza A(H5N1)
SARS-CoV-2 [18] = conditions: SARS-CoV-2; SI = CC50/EC50
in vitro [19] = conditions: African green monkey
RSV [20] = assay: microbe, parasite or virus in culture; conditions: human respiratory syncytial virus, MA104
enterovirus-68 (EV-68) [21] = assay: organism not typed; conditions: RD
Powassan virus (POWV) [22] = conditions: POWV; SI = CC50/EC50
enterovirus-68 (EV-68) [23] = test system: enterovirus-68 (EV-68)
[24] = test system: Venezuelan equine encephalitis virus (VEEV); assay: microbe, parasite or virus in culture; conditions: Vero 76
[25] = test system: Rift Valley fever virus (RVFV); assay: microbe, parasite or virus in culture; conditions: Vero 76
dengue virus-2 (DV-2) [26] = assay: microbe, parasite or virus in culture; conditions: Huh-7
Powassan virus (POWV) [27] = assay: microbe, parasite or virus in culture; conditions: BHK-21
Influenza B [28] = test system: Influenza B
Zika virus [29] = assay: microbe, parasite or virus in culture; conditions: Vero 76
poliovirus-1 (POV-1) [30] = assay: organism not typed; conditions: Vero 76
[31] = test system: Japanese encephalitis virus (JEV); assay: microbe, parasite or virus in culture; conditions: Vero 76
West Nile virus (WNV) [32] = test system: West Nile virus (WNV)
adenovirus-5 (Ad5) [33] = test system: adenovirus-5 (Ad5)
influenza A(H5N1) [34] = assay: microbe, parasite or virus in culture; conditions: H5N1, MDCK
[35] = test system: Rift Valley fever virus (RVFV)
RSV [36] = test system: RSV
poliovirus-1 (POV-1) [37] = test system: poliovirus-1 (POV-1)
Zika virus [38] = test system: Zika virus
SARS-CoV [39] = test system: SARS-CoV
[40] = test system: Human cytomegalovirus (HCMV), strain AD169; conditions: for EC50 / EC90: drug concentration 0.048-150 μM
JC virus (JCV) [41] = test system: JC virus (JCV)
JC virus (JCV) [42] = assay: Secondary JCV assay (qPCR), COS7 cells; conditions: secondary JCV assay, COS7 cells; for EC50 / EC90: 7 days, qPCR, test drug concentration 0.001-100 μM; for Activity: class by SI50
HFF cells = assay: Cell proliferation assay, human foreskin fibroblast (HFF) cells; assay type: cell-based; conditions: 72 h, cell number
HCMV AD169 = assay: HCMV plaque reduction assay, MRC-5 cells, strain AD169; assay type: cell-based, Human cytomegalovirus; conditions: hCMV AD169, MRC5 cells, plaque assay, 6-days duration
[43] = test system: BK virus (BKV), Gardner strain
[44] = biological target: T1, Inosine-5′-Monophosphate Dehydrogenase 2 (IMPDH2) (Homo sapiens, UniProt P12268); assay: IMPDH inhibitor screening assay (BioVision kit); assay type: biochemical; conditions: IMPDH activity, colorimetric OD 450 nm
T1 construct: purchased BioVision (California, USA)

[45] = biological target: T2, SARS-Cov2 RdRp (nsp12-nsp7-nsp8) (Severe acute respiratory syndrome coronavirus 2, UniProt P0DTD1); assay type: biochemical; conditions: after addition of GTP and CTP (third and fourth nucleotides)
[46] = biological target: mitochondrial DNA polymerase (POLG1) (Homo sapiens, UniProt P54098); assay: Inhibition of mitochondrial DNA polymerase (POLG1)
Sequence of mitochondrial DNA polymerase (POLG1) (P54098 whole entry): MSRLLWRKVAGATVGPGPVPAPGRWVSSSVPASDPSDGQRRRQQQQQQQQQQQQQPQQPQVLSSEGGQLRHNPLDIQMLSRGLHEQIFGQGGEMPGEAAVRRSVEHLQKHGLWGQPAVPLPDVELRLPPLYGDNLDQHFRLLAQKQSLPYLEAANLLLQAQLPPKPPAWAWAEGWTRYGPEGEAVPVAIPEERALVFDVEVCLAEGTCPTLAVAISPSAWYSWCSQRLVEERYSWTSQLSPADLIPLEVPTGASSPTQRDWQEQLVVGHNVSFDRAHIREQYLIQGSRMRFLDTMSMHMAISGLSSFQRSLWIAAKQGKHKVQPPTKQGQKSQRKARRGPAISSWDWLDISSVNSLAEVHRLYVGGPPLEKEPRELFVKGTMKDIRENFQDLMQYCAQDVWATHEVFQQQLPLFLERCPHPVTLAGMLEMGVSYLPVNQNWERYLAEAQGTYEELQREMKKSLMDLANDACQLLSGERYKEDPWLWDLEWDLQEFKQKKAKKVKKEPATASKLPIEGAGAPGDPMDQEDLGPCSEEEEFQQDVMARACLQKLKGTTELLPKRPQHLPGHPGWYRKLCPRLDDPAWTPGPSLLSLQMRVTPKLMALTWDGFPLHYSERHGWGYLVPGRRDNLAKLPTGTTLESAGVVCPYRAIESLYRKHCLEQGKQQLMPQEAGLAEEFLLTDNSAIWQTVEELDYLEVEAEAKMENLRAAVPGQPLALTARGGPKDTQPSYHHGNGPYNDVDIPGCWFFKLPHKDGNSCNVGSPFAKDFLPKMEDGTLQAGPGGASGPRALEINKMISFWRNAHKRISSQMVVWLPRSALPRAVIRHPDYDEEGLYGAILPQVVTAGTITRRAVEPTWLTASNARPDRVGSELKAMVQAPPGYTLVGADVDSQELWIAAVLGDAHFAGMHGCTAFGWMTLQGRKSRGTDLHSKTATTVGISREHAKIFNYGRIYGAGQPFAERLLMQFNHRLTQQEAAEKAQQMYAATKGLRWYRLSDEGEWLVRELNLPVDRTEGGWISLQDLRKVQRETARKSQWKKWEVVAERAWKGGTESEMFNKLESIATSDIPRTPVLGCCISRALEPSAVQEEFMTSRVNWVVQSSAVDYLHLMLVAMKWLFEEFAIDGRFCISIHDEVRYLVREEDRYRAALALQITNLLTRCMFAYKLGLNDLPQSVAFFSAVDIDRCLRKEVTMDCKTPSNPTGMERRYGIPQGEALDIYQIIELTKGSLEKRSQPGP

[47] = biological target: T2, SARS-Cov2 RdRp (nsp12-nsp7-nsp8); assay type: biochemical; conditions: primer extension; analog at 100 uM, printed 100 mM
[48] = Vero 76 cells without virus, test compounds

For `Nc1ccn([C@@H]2OC(CO)=C[C@H]2O)c(=O)n1` [AB21650, 3′-deoxy-3′,4′-didehydro cytidine], the CC50 (in vitro [1]) was > 2 mM, the CC50 (TCRV [2]; African green monkey) was > 2 mM and the SI (TCRV [2]; TCRV, SI = CC50/EC50) was 0. For the same molecule, the EC50 (TCRV [3]) was > 2 mM, the CC50 (in vitro [4]) was > 2 mM and the CC50 (Yellow fever virus (YFV) [5]; Huh7 cells without virus, test compounds) was > 2 mM. The SI (Yellow fever virus (YFV) [5]; YFV, SI = CC50/EC50) was 0, the SI ([6]; VEEV, SI = CC50/EC50) was 0 and the CC50 [6, 48] was > 2 mM. For the same molecule, the EC50 (Yellow fever virus (YFV) [7]) was > 2 mM, the EC50 (SARS-CoV-2 [8]) was > 2 mM and the CC50 ([9]; African green monkey) was > 2 mM. For the same molecule, the SI ([9]; JEV, SI = CC50/EC50) was 0, the EC50 (West Nile virus (WNV) [10]) was > 2 mM and the EC50 (Influenza B [11]) was > 2 mM. For the same molecule, the EC50 (influenza A(H1N1) [12]) was > 2 mM, the SI (influenza A(H1N1) [13]; H1N1) was 0 and the CC50 (influenza A(H1N1) [13]; dog) was > 2 mM. The SI (dengue virus-2 (DV-2) [14]) was 0, the EC50 (adenovirus-5 (Ad5) [15]) was > 2 mM and the EC50 (SARS-CoV [16]) was > 2 mM. The CC50 (influenza A(H5N1) [17]; MDCK cells without virus, test compounds) was > 2 mM, the SI (influenza A(H5N1) [17]; influenza A(H5N1), SI = CC50/EC50) was 0 and the SI (SARS-CoV-2 [18]) was 0. For the same molecule, the CC50 (in vitro [19]) was > 2 mM, the EC50 (RSV [20]) was > 2 mM and the EC50 (enterovirus-68 (EV-68) [21]) was 0.91 mM. For the same molecule, the SI (Powassan virus (POWV) [22]) was 0, the SI (enterovirus-68 (EV-68) [23]; EV-68, SI = CC50/EC50) was 2 and the CC50 (enterovirus-68 (EV-68) [23]; human) was 1.8 mM. For the same molecule, the EC50 [24] was > 2 mM, the EC50 [25] was > 2 mM and the EC50 (dengue virus-2 (DV-2) [26]) was > 2 mM. The EC50 (Powassan virus (POWV) [27]) was > 2 mM, the SI (Influenza B [28]) was 0 and the CC50 (Influenza B [28]; dog) was > 2 mM. The EC50 (Zika virus [29]) was > 2 mM, the EC50 (poliovirus-1 (POV-1) [30]) was > 2 mM and the EC50 [31] was > 2 mM. For the same molecule, the CC50 (West Nile virus (WNV) [32]; African green monkey) was > 2 mM, the SI (West Nile virus (WNV) [32]; WNV, SI = CC50/EC50) was 0 and the SI (adenovirus-5 (Ad5) [33]; Ad5, SI = CC50/EC50) was 0. The CC50 (adenovirus-5 (Ad5) [33]; human) was > 2 mM, the EC50 (influenza A(H5N1) [34]) was > 2 mM and the SI ([35]; RVFV, SI = CC50/EC50) was 0. The CC50 [35, 48] was > 2 mM, the CC50 (RSV [36]; African green monkey) was > 2 mM and the SI (RSV [36]; RSV, SI = CC50/EC50) was 0. The SI (poliovirus-1 (POV-1) [37]; POV-1, SI = CC50/EC50) was 0, the CC50 (poliovirus-1 (POV-1) [37]; [48]) was > 2 mM and the CC50 (Zika virus [38]; African green monkey) was > 2 mM. The SI (Zika virus [38]; Zika, SI = CC50/EC50) was 0, the SI (SARS-CoV [39]; SARS-CoV, SI = CC50/EC50) was 0 and the CC50 (SARS-CoV [39]; [48]) was > 2 mM.
In the case of `CCC(CC)COC(=O)[C@H](C)N[P@](=O)(OCC1=CC(O)C(n2ccc(=O)[nH]c2=O)O1)Oc1ccccc1` (stereo partly drawn) [AB23031], the CC50 (MRC-5 cells) is reported as > 0.1 mM, the CC50 (MOLT-3 cells) is reported as 0.0554 mM and the Activity [40] is reported as “HI (key: NA (Not Active) SI50 = 0-3.9; LO (Slightly Active) SI50 = 4-9.9; MOD (Moderately Active) SI50 = 10-19.9; HI (Highly Active) SI50 = ≥20)”. For the same molecule, the CC50 [40] was > 0.15 mM, the “activity against hCMV (in words)” value [40] was “highly active” and the EC50 [40] was 0.00015 mM. The EC90 [40] was > 0.15 mM, the CC50 (JC virus (JCV) [41]) was > 0.1 mM and the EC50 (JC virus (JCV) [42]) was 0.0938 mM. The EC90 (JC virus (JCV) [42]) was > 0.1 mM, the Activity (JC virus (JCV) [42]) was “NA (NA (Not Active) SI50 = 0-3.9)” and the IC50 (HFF cells) was > 0.1 mM. The EC50 (HCMV AD169) was > 0.1 mM, the Activity [43] was “HI (key: NA (Not Active) SI50 = 0-3.9; LO (Slightly Active) SI50 = 4-9.9; MOD (Moderately Active) SI50 = 10-19.9; HI (Highly Active) SI50 = ≥20)” and the CC50 [43] was > 0.15 mM. For the same molecule, the EC50 [43] was 0.00512 mM, the EC90 [43] was > 0.15 mM and the “activity against BK virus (in words)” value [43] was “highly active”.
For `CCC(CC)COC(=O)[C@H](C)N[P@](=O)(OCC1=CC(O)C(n2cnc3c(=O)[nH]c(N)nc32)O1)Oc1ccccc1` (stereo partly drawn) [AB23032], the CC50 (MRC-5 cells) was > 0.1 mM, the Activity [40] was “NA (key: NA (Not Active) SI50 = 0-3.9; MOD (Moderately Active) SI50 = 4-9.9; HI (Highly Active) SI50 = ≥10)” and the CC50 [40] was > 0.15 mM. For the same molecule, the EC50 [40] was > 0.15 mM, the EC90 [40] was > 0.15 mM and the CC50 (JC virus (JCV) [41]) was > 0.1 mM. For the same molecule, the EC50 (JC virus (JCV) [42]) was > 0.1 mM, the EC90 (JC virus (JCV) [42]) was > 0.1 mM and the Activity (JC virus (JCV) [42]) was “NA (NA (Not Active) SI50 = 0-3.9)”. The EC50 (HCMV AD169) was > 0.1 mM, the Activity [43] was “NA (key: NA (Not Active) SI50 = 0-3.9; MOD (Moderately Active) SI50 = 4-9.9; HI (Highly Active) SI50 = ≥10)” and the CC50 [43] was > 0.15 mM. It also gave an EC50 [43] of 0.0772 mM and an EC90 [43] of 0.149 mM.
`NC(=O)c1ncn([C@@H]2O[C@H](COP(=O)(O)O)[C@@H](O)[C@H]2O)n1` [RMP, Ribavirin 5′-monophosphate] showed an IC50 [44] of 0.0026 ± 0.0018 mM.
With `O=c1ccn(C2OC(COP(=O)(O)OP(=O)(O)OP(=O)(O)O)=CC2O)c(=O)[nH]1` (stereo not drawn) [ddhUTP, 3′-deoxy-3,4-didehydro-UTP] the “chain termination of RNA synthesis (in words)” value [45] was “caused chain termination of RNA synthesis”, the “substrate for POLG1 (in words)” value [46] was “poor substrates” and the “incorporation into RNA by SARS-Cov2 RdRp (in words)” value [47] was “incorporated onto RNA as UTP analog”.
